Experimental data as given in ChEMBL document CHEMBL5055675, “Apoptosis Inducing 1,3,4-Oxadiazole Conjugates of Capsaicin: Their In Vitro Antiproliferative and In Silico Studies” (ACS Med Chem Lett, 2021).

What was measured:
Format in all cases: functional
CCRF-CEM = experiment: Antiproliferative activity against human CCRF-CEM cells assessed as cell growth at 10 uM incubated for 48 hrs by sulforhodamine B assay relative to control; conditions: read-out: Activity
K562 = experiment: Antiproliferative activity against human K562 cells assessed as cell growth at 10 uM incubated for 48 hrs by sulforhodamine B assay relative to control; conditions: read-out: Activity
MOLT-4 = experiment: Antiproliferative activity against human MOLT-4 cells assessed as cell growth at 10 uM incubated for 48 hrs by sulforhodamine B assay relative to control; conditions: read-out: Activity
A549 = experiment: Antiproliferative activity against human A549/ATCC cells assessed as cell growth at 10 uM incubated for 48 hrs by sulforhodamine B assay relative to control; conditions: read-out: Activity
EKVX = experiment: Antiproliferative activity against human EKVX cells assessed as cell growth at 10 uM incubated for 48 hrs by sulforhodamine B assay relative to control; conditions: read-out: Activity
HOP-62 = experiment: Antiproliferative activity against human HOP-62 cells assessed as cell growth at 10 uM incubated for 48 hrs by sulforhodamine B assay relative to control; conditions: read-out: Activity
NCI-H226 = experiment: Antiproliferative activity against human NCI-H226 cells assessed as cell growth at 10 uM incubated for 48 hrs by sulforhodamine B assay relative to control; conditions: read-out: Activity
NCI-H322M = experiment: Antiproliferative activity against human NCI-H322M cells assessed as cell growth at 10 uM incubated for 48 hrs by sulforhodamine B assay relative to control; conditions: read-out: Activity
COLO 205 = experiment: Antiproliferative activity against human COLO 205 cells assessed as cell growth at 10 uM incubated for 48 hrs by sulforhodamine B assay relative to control; conditions: read-out: Activity
HCC 2998 = experiment: Antiproliferative activity against human HCC 2998 cells assessed as cell growth at 10 uM incubated for 48 hrs by sulforhodamine B assay relative to control; conditions: read-out: Activity
HCT-15 = experiment: Antiproliferative activity against human HCT-15 cells assessed as cell growth at 10 uM incubated for 48 hrs by sulforhodamine B assay relative to control; conditions: read-out: Activity
KM12 = experiment: Antiproliferative activity against human KM12 cells assessed as cell growth at 10 uM incubated for 48 hrs by sulforhodamine B assay relative to control; conditions: read-out: Activity
SW-620 = experiment: Antiproliferative activity against human SW-620 cells assessed as cell growth at 10 uM incubated for 48 hrs by sulforhodamine B assay relative to control; conditions: read-out: Activity
SF-539 = experiment: Antiproliferative activity against human SF-539 cells assessed as cell growth at 10 uM incubated for 48 hrs by sulforhodamine B assay relative to control; conditions: read-out: Activity
SNB-19 = experiment: Antiproliferative activity against human SNB-19 cells assessed as cell growth at 10 uM incubated for 48 hrs by sulforhodamine B assay relative to control; conditions: read-out: Activity
LOX IMVI = experiment: Antiproliferative activity against human LOX IMVI cells assessed as cell growth at 10 uM incubated for 48 hrs by sulforhodamine B assay relative to control; conditions: read-out: Activity
M14 = experiment: Antiproliferative activity against human M14 cells assessed as cell growth at 10 uM incubated for 48 hrs by sulforhodamine B assay relative to control; conditions: read-out: Activity
SK-MEL-2 = experiment: Antiproliferative activity against human SK-MEL-2 cells assessed as cell growth at 10 uM incubated for 48 hrs by sulforhodamine B assay relative to control; conditions: read-out: Activity
SK-MEL-5 = experiment: Antiproliferative activity against human SK-MEL-5 cells assessed as cell growth at 10 uM incubated for 48 hrs by sulforhodamine B assay relative to control; conditions: read-out: Activity
UACC-257 = experiment: Antiproliferative activity against human UACC-257 cells assessed as cell growth at 10 uM incubated for 48 hrs by sulforhodamine B assay relative to control; conditions: read-out: Activity
UACC-62 = experiment: Antiproliferative activity against human UACC-62 cells assessed as cell growth at 10 uM incubated for 48 hrs by sulforhodamine B assay relative to control; conditions: read-out: Activity
OVCAR-5 = experiment: Antiproliferative activity against human OVCAR-5 cells assessed as cell growth at 10 uM incubated for 48 hrs by sulforhodamine B assay relative to control; conditions: read-out: Activity
SK-OV-3 [1] = experiment: Antiproliferative activity against human SK-OV-3 cells assessed as cell growth at 10 uM incubated for 48 hrs by sulforhodamine B assay relative to control; conditions: read-out: Activity
A498 = experiment: Antiproliferative activity against human A498 cells assessed as cell growth at 10 uM incubated for 48 hrs by sulforhodamine B assay relative to control; conditions: read-out: Activity
ACHN = experiment: Antiproliferative activity against human ACHN cells assessed as cell growth at 10 uM incubated for 48 hrs by sulforhodamine B assay relative to control; conditions: read-out: Activity
RXF 393 = experiment: Antiproliferative activity against human RXF 393 cells assessed as cell growth at 10 uM incubated for 48 hrs by sulforhodamine B assay relative to control; conditions: read-out: Activity
TK-10 = experiment: Antiproliferative activity against human TK-10 cells assessed as cell growth at 10 uM incubated for 48 hrs by sulforhodamine B assay relative to control; conditions: read-out: Activity
UO-31 = experiment: Antiproliferative activity against human UO-31 cells assessed as cell growth at 10 uM incubated for 48 hrs by sulforhodamine B assay relative to control; conditions: read-out: Activity
PC-3 = experiment: Antiproliferative activity against human PC-3 cells assessed as cell growth at 10 uM incubated for 48 hrs by sulforhodamine B assay relative to control; conditions: read-out: Activity
DU-145 = experiment: Antiproliferative activity against human DU-145 cells assessed as cell growth at 10 uM incubated for 48 hrs by sulforhodamine B assay relative to control; conditions: read-out: Activity
MCF7 = experiment: Antiproliferative activity against human MCF7 cells assessed as cell growth at 10 uM incubated for 48 hrs by sulforhodamine B assay relative to control; conditions: read-out: Activity
MDA-MB-231 = experiment: Antiproliferative activity against human MDA-MB-231/ATCC cells assessed as cell growth at 10 uM incubated for 48 hrs by sulforhodamine B assay relative to control; conditions: read-out: Activity
Hs-578T = experiment: Antiproliferative activity against human Hs-578T cells assessed as cell growth at 10 uM incubated for 48 hrs by sulforhodamine B assay relative to control; conditions: read-out: Activity
BT-549 = experiment: Antiproliferative activity against human BT-549 cells assessed as cell growth at 10 uM incubated for 48 hrs by sulforhodamine B assay relative to control; conditions: read-out: Activity
T47D = experiment: Antiproliferative activity against human T47D cells assessed as cell growth at 10 uM incubated for 48 hrs by sulforhodamine B assay relative to control; conditions: read-out: Activity
MDA-MB-468 = experiment: Antiproliferative activity against human MDA-MB-468 cells assessed as cell growth at 10 uM incubated for 48 hrs by sulforhodamine B assay relative to control; conditions: read-out: Activity
HCT-116 = experiment: Antiproliferative activity against human HCT-116 cells assessed as cell growth inhibition measured after 72 hrs by crystal violet staining based assay; conditions: HCT-116, 72 h
NCI-H460 = experiment: Antiproliferative activity against human NCI-H460 cells assessed as cell growth inhibition measured after 72 hrs by crystal violet staining based assay; conditions: NCI-H460, 72 h
SK-OV-3 [2] = experiment: Antiproliferative activity against human SK-OV-3 cells assessed as cell growth inhibition measured after 72 hrs by crystal violet staining based assay; conditions: SK-OV-3, 72 h

| Structure (SMILES) | growth at 10 µM (CCRF-CEM) [%] | growth at 10 µM (K562) [%] | growth at 10 µM (MOLT-4) [%] | growth at 10 µM (A549) [%] | growth at 10 µM (EKVX) [%] | growth at 10 µM (HOP-62) [%] | growth at 10 µM (NCI-H226) [%] | growth at 10 µM (NCI-H322M) [%] | growth at 10 µM (COLO 205) [%] | growth at 10 µM (HCC 2998) [%] | growth at 10 µM (HCT-15) [%] | growth at 10 µM (KM12) [%] | growth at 10 µM (SW-620) [%] | growth at 10 µM (SF-539) [%] | growth at 10 µM (SNB-19) [%] | growth at 10 µM (LOX IMVI) [%] | growth at 10 µM (SK-MEL-2) [%] | growth at 10 µM (SK-MEL-5) [%] | growth at 10 µM (UACC-257) [%] | growth at 10 µM (UACC-62) [%] | other results |
| --- | --- | --- | --- | --- | --- | --- | --- | --- | --- | --- | --- | --- | --- | --- | --- | --- | --- | --- | --- | --- | --- |
| COc1cc(CNC(=O)CCCC/C=C/C(C)C)ccc1OCc1nnc(Nc2cccc(Br)c2)o1 | 81.8 | 65 | 83.5 | 95.4 | 78.1 | 75.6 | 50.4 | 98 | 110 | 101 | 90.2 | 90.3 | 95.4 | 88.4 | 99.5 | 88.9 | 105 | 89.8 | 105 | 67.5 | growth at 10 µM (M14): 93.3%; growth at 10 µM (OVCAR-5): 91.1%; growth at 10 µM (SK-OV-3 [1]): 82.6%; growth at 10 µM (A498): 77.8%; growth at 10 µM (ACHN): 85.1%; growth at 10 µM (RXF 393): 70.6%; growth at 10 µM (TK-10): 104%; growth at 10 µM (UO-31): 64%; growth at 10 µM (PC-3): 87.9%; growth at 10 µM (DU-145): 89.8%; growth at 10 µM (MCF7): 83.7%; growth at 10 µM (MDA-MB-231): 78.3%; growth at 10 µM (Hs-578T): 93.7%; growth at 10 µM (BT-549): 76.4%; growth at 10 µM (T47D): 58.9%; growth at 10 µM (MDA-MB-468): 48.1% |
| COc1cc(CNC(=O)CCCC/C=C/C(C)C)ccc1OCc1nnc(Nc2ccccc2F)o1 | 83 | 60.4 | 82 | 105 | 77.1 | 56.4 | 64.5 | 86.1 | 104 | 90.8 | 90.1 | 78.8 | 98.9 | 48.2 | 58.5 | 83.4 | 111 | 86.6 | 98.2 | 65.5 | growth at 10 µM (M14): 99.7%; growth at 10 µM (OVCAR-5): 77.7%; growth at 10 µM (SK-OV-3 [1]): 48.6%; growth at 10 µM (A498): 92.5%; growth at 10 µM (ACHN): 56%; growth at 10 µM (RXF 393): 68.8%; growth at 10 µM (TK-10): 97.7%; growth at 10 µM (UO-31): 52.8%; growth at 10 µM (PC-3): 72.5%; growth at 10 µM (DU-145): 88.7%; growth at 10 µM (MCF7): 66.9%; growth at 10 µM (MDA-MB-231): 63.9%; growth at 10 µM (Hs-578T): 83.7%; growth at 10 µM (BT-549): 77%; growth at 10 µM (T47D): 65%; growth at 10 µM (MDA-MB-468): 58.9%; IC50 (HCT-116): 10.5 µM; IC50 (NCI-H460): 14.4 µM; IC50 (SK-OV-3 [2]): 12.5 µM |
| COc1cc(CNC(=O)CCCC/C=C/C(C)C)ccc1OCc1nnc(SCCc2c[nH]c3ccccc23)o1 | 34.7 | 40.7 | 29.2 | 79.4 | 57.4 | 92.8 | 67.2 | 88.7 | 71.2 | 98 | 68.6 | 73.3 | 84.7 | 80.8 | 77 | 55.2 | 86.7 | 105 | 101 | 67.5 | growth at 10 µM (OVCAR-5): 102%; growth at 10 µM (SK-OV-3 [1]): 85.7%; growth at 10 µM (A498): 73.3%; growth at 10 µM (ACHN): 76.5%; growth at 10 µM (RXF 393): 54%; growth at 10 µM (TK-10): 91.7%; growth at 10 µM (UO-31): 45%; growth at 10 µM (PC-3): 56.9%; growth at 10 µM (DU-145): 94.9%; growth at 10 µM (MCF7): 58.8%; growth at 10 µM (MDA-MB-231): 70.6%; growth at 10 µM (Hs-578T): 81%; growth at 10 µM (BT-549): 75%; growth at 10 µM (T47D): 43%; growth at 10 µM (MDA-MB-468): 51.8%; IC50 (HCT-116): 13.4 µM; IC50 (NCI-H460): 9.89 µM; IC50 (SK-OV-3 [2]): 31.4 µM |
